Test [1] has as its target human GABAA α5β2γ1 receptor (Homo sapiens (Human), UniProt P31644+Q8N1C3). As to the kind of experiment: Radioligand binding assay, competition for [3H]RO7239181, γ1-containing GABAA subtypes. The conditions noted are these: membranes from HEK293F cells, mean of two determinations. The method, then: (§1) Membrane Preparation and Binding Assay for γ1-containing GABAA Subtypes
The affinity of compounds at GABAA γ1 subunit-containing receptors was measured by competition for [^3H]RO7239181 (67.3 Ci/mmol: Roche) binding to membranes from HEK293F cells (ThermoFisher R79007) expressing human (transiently transfected) receptors of composition α5β2γ1, α2β2γ1, α1β2γ1. For better protein expression of the α2 subunit-containing receptors, the 28 amino acid long signal peptide (Metl to Ala28) of the human GABAA α2 subunit was substituted by the 31 amino acid long signal peptide (Met1 to Ser31) of human GABAA α5 subunit.
(§2) Harvested pellets from HEK293F cells expressing the different GABAA receptor subtypes were resuspended in Mannitol Buffer pH 7.2-7.4 (Mannitol 0.29 M, Tricthylamine 10 mM. Acetic acid 10 mM. EDTA 1 mM plus protease inhibitors (20 tablets Complete. Roche Diagnostics Cat. No. 05 056 489 001 per liter)), washed two times and then resuspended at 1:10 to 1:15 dilution in the same buffer. Cell disruption was performed by stirring the suspension in a Parr vessel #4637 at 435 psi for 15 minutes, and then the suspensions were centrifuged at 1000×g for 15 minutes at 4° C. (Beckman Avanti J-HC: rotor JS-4.2). The supernatant (S1) was transferred in a 21 Schott flask and the pellet (P1) was resuspended with Mannitol Buffer up to 175 ml. The resuspended pellet was transferred into a 250 ml Corning centrifugal beaker and centrifuged at 1500 ×g for 10 minutes at 4° C. (Beckman Avanti J-HC: rotor JS-4.2). The supernatant (S1) was then transferred in the 21 Schott flask and the pellet was discarded. The supernatants (S1) were centrifuged in 500ml Beckman polypropylene centrifugal beaker at 15 000×g for 30 minutes at 4° C. (Beckman Avanti J-20 XP; rotor JLA-10.500). The pellet (P2) was resuspended with Mannitol Buffer 1:1 and frozen at −80° C. The supernatant (S2) was centrifuged in 100 ml Beckman polypropylene centrifugal tubes at 48000×g for 50 minutes at 4 °C (Beckman Avanti J-20 XP: rotor JA-18). The supernatant (S3) was discarded and the pellet (P3) was resuspended with 1:1 Mannitol Buffer. The P2 and P3 protein concentration was determined with the BIORAD Standard assay method with bovine serum albumin as standard and measured on the NANO-Drop 1000. The membrane suspension was aliquots (500μl per tube) and stored at −80° C. until required.
(§3) Membrane homogenates were resuspended and polytronised (Polytron PT1200E Kinematica AG) in Potassium Phosphate 10 mM, KCl 100 mM binding buffer at pH 7.4 to a final assay concentration determined with a previous experiment.
(§4) Radioligand binding assays were carried out in a volume of 200 μL (96-well plates) which contained 100 μL of cell membranes. [^3H]RO7239181 at a concentration of 1.5 nM (α5β2γ1) or 20-30 nM (α1β2γ1, α2β2γ1) and the test compound in the range of [0.3-10000]33 10^−9 M. Nonspecific binding was defined by 10×10^6 (α5β2γ1) and 30×10^6 M RO7239181 and typically represented less than 5% (α5β2γ1) and less than 20% (α1β2γ1, α2β2γ1) of the total binding. Assays were incubated to equilibrium for 1 hour at 4° C. and then, membranes were filtered onto unifilter (96-well white microplate with bonded GF/C filters preincubated 20-50 minutes in 0.3% Polyethylenimine) with a Filtermate 196 harvester (Packard BioScience) and washed 4 times with cold Potassium Phosphate 10 mM pH 7.4. KCl 100 mM binding buffer. After anhydrousing, filter-retained radioactivity was detected by liquid scintillation counting. Ki values were calculated using Excel-Fit (Microsoft) and are the means of two determinations.
Representative test results, obtained by the above described assay measuring binding affinity to HEK293 cells expressing human (h) receptors, are shown in the Table 1.

The target in test [2] is human GABAA α2β2γ1 receptor (Homo sapiens (Human), UniProt P47869+Q8N1C3). The description is as above. The method, then: as §1
The affinity of compounds at GABAA γ1 subunit-containing receptors was measured by competition for [^3H]RO7239181 (67.3 Ci/mmol: Roche) binding to membranes from HEK293F cells (ThermoFisher R79007) expressing human (transiently transfected) receptors of composition α5β2γ1, α2β2γ1, α1β2γ1.
as §2, §3
as §4, with “[^3H]RO7239181 at a concentration of 1.5 nM (α5β2γ1) or 20-30 nM (α1β2γ1, α2β2γ1) and the test compound in the range of [0.3-10000]33 10^−9 M. Nonspecific binding was defined by 10×10^6 (α5β2γ1) and 30×10^6 M RO7239181 and typically represented less than 5% (α5β2γ1) and less than 20% (α1β2γ1, α2β2γ1) of the total binding.” left out

Test [3] concerns the target human GABAA α1β3γ2 receptor (Homo sapiens (Human), UniProt P14867+P18507). As to the kind of experiment: Radioligand binding assay, competition for [3H]Flumazenil, γ2-containing GABAA subtypes. The conditions noted are these: for γ2/γ1 Selectivity Ratio: Ki α1β3γ2 (nM)/Ki α2β2γ1 (nM); for LogSel: Log[Ki α1β3γ2 (nM)/Ki α2β2γ1 (nM)]. The method, then:
Membrane Preparation and Binding Assay for γ2-containing GABAA Subtypes
The affinity of compounds at GABAA γ2 subunit-containing receptors was measured by competition for [^3H]Flumazenil (81.1 Ci/mmol; Roche) binding to HEK293F cells expressing human (transiently transfected) receptors of composition α1β3γ2.
Harvested pellets from HEK293F cells expressing the different GABAA γ2 receptor subtypes were resuspended in Mannitol Buffer pH 7,2-7,4 and processed as described above for the cells expressing the GABAA γ1 subunit-containing receptors.
Assays were incubated to equilibrium for 1 hour at 4° C, and harvested onto GF/C uni-filters (Packard) by filtration using a Packard harvester and washing with ice-cold wash buffer (50 mM Tris; pH 7.5). After anhydrousing, filter-retained radioactivity was detected by liquid scintillation counting. Ki values were calculated using Excel-Fit (Microsoft) and are the means of two determinations.

Setting [4] is: read-out: Ki h-GABAA α2β2γ1, membranes from HEK293F cells, [3H]RO7239181 20-30 nM, mean of two determinations.
[5] abbreviates: HEK293F cell membranes, [3H]Flumazenil 1 nM, mean of two determinations, read-out: Ki h-GABAA α1β3γ2.

Like-named read-outs stand apart in the source and are kept apart here.

As a reminder, the Ki is the equilibrium dissociation constant of an inhibitor or competing ligand from its target. Regarding `Cc1nnc2n1-c1sc3c(c1C(c1c(F)cccc1Cl)=NC2)C[C@@H](C#N)C3` [Example 1, (13R)-9-(2-chloro-6-fluoro-phenyl)-3-methyl-16-thia-2,4,5,8-tetrazatetracyclo [8.6.0.02,6.011,15]hexadeca-1(10),3,5,8,11(15)-pentaene-13-carbonitrile], the inhibition constant (Ki) came out at 8.8 nM in test [1], 25.4 nM in test [2], 25.4 nM in test [2] (setting [4]) and 1250 nM in test [3] (setting [5]). Also, in test [3], the “γ2/γ1 Selectivity Ratio” value was 49.0. The LogSel in test [3] turned out to be 1.69.

`Cc1nnc2n1-c1sc3c(c1C(c1c(F)cccc1F)=NC2)C[C@@H](C#N)C3` [Example 2, (13R)-9-(2,6-difluorophenyl)-3-methyl-16-thia-2,4,5,8-tetrazatetracyclo [8.6.0.02,6.011,15]hexadeca-1(10),3,5,8,11(15)-pentaene-13-carbonitrile]: the Ki in test [1] turned out to be 16.3 nM; in test [2] it was 42.7 nM; in test [2] (setting [4]), 42.7 nM; in test [3] (setting [5]), 2160 nM. For the same molecule, the “γ2/γ1 Selectivity Ratio” value in test [3] stood at 50.7. Moreover, the LogSel in test [3] came out at 1.71.

For `Cc1nnc2n1-c1sc3c(c1C(c1c(F)cccc1F)=NC2)C[C@@H](C(F)F)C3` [Example 3, (13R)-13-(difluoromethyl)-9-(2,6-difluorophenyl)-3-methyl-16-thia-2,4,5,8-tetrazatetracyclo [8.6.0.02,6.011,15]hexadeca-1(10),3,5,8,11(15)-pentaene], the inhibition constant (Ki) in test [1] was 1.8 nM; in test [2] it was 2.9 nM; in test [2] (setting [4]) it was 2.9 nM; in test [3], 257 nM. The “γ2/γ1 Selectivity Ratio” value in test [3] came out at 88.4. In addition, in test [3], the LogSel is 1.95.

In the case of `Cc1nnc2n1-c1sc3c(c1C(c1c(F)cccc1Cl)=NC2)C[C@@H](C(F)F)C3` [Example 4, (13R)-9-(2-chloro-6-fluoro-phenyl)-13-(difluoromethyl)-3-methyl-16-thia-2,4,5,8-tetrazatetracyclo [8.6.0.02,6.011,15]hexadeca-1(10),3,5,8,11(15)-pentaene], the inhibitory constant (Ki) in test [1] amounted to 1.2 nM; in test [2], 4.6 nM; in test [2] (setting [4]) it was 4.6 nM; in test [3], 343 nM. Further, in test [3], the “γ2/γ1 Selectivity Ratio” value was 74.8. In addition, in test [3], the LogSel is 1.87.

For `Cc1nnc2n1-c1sc3c(c1C(c1c(F)cccc1F)=N[C@H]2C)C[C@@H](C(F)F)C3` [Example 5, (7S,13R)-13-(difluoromethyl)-9-(2,6-difluorophenyl)-3,7-dimethyl-16-thia-2,4,5,8-tetrazatetracyclo [8.6.0.02,6.011,15]hexadeca-1(10),3,5,8,11(15)-pentaene], the Ki in test [1] was determined as 1.2 nM; in test [2], 3.4 nM; in test [2] (setting [4]) it was 3.4 nM; in test [3], 228 nM. In test [3], the “γ2/γ1 Selectivity Ratio” value is recorded as 66.5. This molecule had a LogSel in test [3] of 1.82.

As for `Fc1cccc(Cl)c1C1=NCc2nnc(C3CC3)n2-c2sc3c(c21)C[C@@H](C(F)F)C3` [Example 6, (13R)-9-(2-chloro-6-fluoro-phenyl)-3-cyclopropyl-13-(difluoromethyl)-16-thia-2,4,5,8-tetrazatetracyclo [8.6.0.02,6.011,15]hexadeca-1(10),3,5,8,11(15)-pentaene], the Ki came out at 3.4 nM in test [1], 6.6 nM in test [2], 6.6 nM in test [2] (setting [4]) and 647 nM in test [3]. Also, in test [3], the “γ2/γ1 Selectivity Ratio” value came to 97.7. In test [3], this molecule came in with a LogSel of 1.99.

On to `Fc1cccc(F)c1C1=NCc2nnc(C3CC3)n2-c2sc3c(c21)C[C@@H](C(F)F)C3` [Example 7, (13R)-3-cyclopropyl-13-(difluoromethyl)-9-(2,6-difluorophenyl)-16-thia-2,4,5,8-tetrazatetracyclo [8.6.0.02,6.011,15]hexadeca-1(10),3,5,8,11(15)-pentaene], for which the Ki stood at 2.1 nM in test [1], 6.4 nM in test [2], 6.4 nM in test [2] (setting [4]) and 304 nM in test [3]. Moreover, in test [3], the “γ2/γ1 Selectivity Ratio” value was determined as 47.3. In addition, the LogSel in test [3] stood at 1.67.

`C[C@@H]1N=C(c2c(F)cccc2F)c2c(sc3c2C[C@@H](C(F)F)C3)-n2c(C3CC3)nnc21` [Example 8, (7S,13R)-3-cyclopropyl-13-(difluoromethyl)-9-(2,6-difluorophenyl)-7-methyl-16-thia-2,4,5,8-tetrazatetracyclo [8.6.0.02,6.011,15]hexadeca-1(10),3,5,8,11(15)-pentaene]: the Ki worked out at 1.9 nM in test [1], 4.6 nM in test [2], 4.6 nM in test [2] (setting [4]) and 455 nM in test [3]. Moreover, the “γ2/γ1 Selectivity Ratio” value in test [3] came to 99.2. The molecule further returned a LogSel in test [3] of 2.00.

For `Cc1nnc2n1-c1sc3c(c1C(c1c(F)cccc1Cl)=N[C@H]2C)C[C@@H](C(F)F)C3` [Example 9, (7S,13R)-9-(2-chloro-6-fluoro-phenyl)-13-(difluoromethyl)-3,7-dimethyl-16-thia-2,4,5,8-tetrazatetracyclo [8.6.0.02,6.011,15]hexadeca-1(10),3,5,8,11(15)-pentaene], the inhibitory constant (Ki) in test [1] came out at 1.6 nM; in test [2] it was 3.6 nM; in test [2] (setting [4]), 3.6 nM; in test [3], 366 nM. Further, the “γ2/γ1 Selectivity Ratio” value in test [3] was determined as 101.3. The molecule also gave a LogSel in test [3] of 2.01.

For `Fc1cccc(F)c1C1=NCc2nnc(-c3cccnn3)n2-c2sc3c(c21)C[C@@H](C(F)F)C3` [Example 10, (13R)-13-(difluoromethyl)-9-(2,6-difluorophenyl)-3-pyridazin-3-yl-16-thia-2,4,5,8-tetrazatetracyclo [8.6.0.02,6.011,15]hexadeca-1(10),3,5,8,11(15)-pentaene], the Ki in test [1] was 3 nM; in test [2], 3 nM; in test [2] (setting [4]) it was 3 nM; in test [3], 3220 nM. The “γ2/γ1 Selectivity Ratio” value in test [3] worked out at 1090.8. This molecule also displayed a LogSel in test [3] of 3.04.

(Values after US20240190889A1, “NEW CYCLOPENTA-THIENO-DIAZEPINE DERIVATIVES AS GABA A GAMMA1 POSITIVE ALLOSTERIC MODULATORS” (Hoffmann-La Roche Inc., priority 2021, published 2024).)
